According to ChEMBL document CHEMBL1145703, “Flavonol and chalcone ester glycosides from Bidens leucantha” (J Nat Prod, 1997):
Values after ≈ are worked out from the molar mass of the structure shown. Active and inactive are the calls of the source. The rule behind the calls is not given here.

Tests used:
[1] = Cytotoxicity against human C8166 cells by XTT-formazan method; assay type: cell-based; conditions: read-out: TC50 (the source's name)
[2] = Selectivity index, ratio of EC50 for HIV1 MN infection in human C8166 cells to TC50 for human C8166 cells; assay type: functional
[3] = system: Human immunodeficiency virus 1; assay: Antiviral activity against HIV1 MN infected in human C8166 cells assessed as reduction in Ag gp120 production by ELISA; assay type: functional, organism-based; conditions: Human immunodeficiency virus 1, MN
[4] = system: C8166; assay: Cytotoxicity against human C8166 cells at 250 ug/ml by XTT-formazan method; assay type: cell-based
[5] = system: Human immunodeficiency virus 1; assay: Antiviral activity against HIV1 MN infection in human C8166 cells after 2 days by syncitium-forming assay; assay type: functional, organism-based

SMILES	CC50 [1]	Selectivity Index [2]	EC50 [3]	Activity [4]	Activity [5]
O=C(/C=C/c1ccc(O)cc1)OC[C@H]1O[C@@H](Oc2ccc(C(=O)/C=C/c3ccc(O)cc3)c(O)c2O)[C@H](O)[C@@H](O)[C@@H]1O	250 µg/mL (≈ 431 µM)	12.5	50 µg/mL (≈ 86.1 µM)		
CC(=O)OC[C@H]1O[C@@H](Oc2ccc(C(=O)/C=C/c3ccc(O)c(O)c3)c(O)c2O)[C@H](O)[C@@H](OC(C)=O)[C@@H]1OC(C)=O		12.5	20 µg/mL (≈ 34.7 µM)	Non-toxic	
COc1ccc(-c2oc3cc(O[C@@H]4O[C@H](CO[C@@H]5O[C@@H](C)[C@H](O)[C@@H](O)[C@H]5O[C@@H]5O[C@@H](C)[C@H](O)[C@@H](O)[C@H]5O)[C@@H](O)[C@H](O)[C@H]4O)cc(O)c3c(=O)c2OC)cc1O					inactive
CC(=O)O[C@H]1[C@H](O)[C@@H](O)[C@H](Oc2ccc(C(=O)/C=C/c3ccc(O)c(O)c3)c(O)c2O)O[C@@H]1COC(=O)/C=C/c1ccc(O)cc1	100 µg/mL (≈ 157 µM)	>10	10 µg/mL (≈ 15.7 µM)		
COc1c(-c2ccc(O)c(O)c2)oc2cc(O[C@@H]3O[C@H](CO[C@@H]4O[C@@H](C)[C@H](O)[C@@H](O)[C@H]4O)[C@@H](O)[C@H](O)[C@H]3O)cc(O)c2c1=O					inactive
COc1ccc(-c2oc3cc(O[C@@H]4O[C@H](CO[C@@H]5O[C@@H](C)[C@H](O)[C@@H](O)[C@H]5O)[C@@H](O)[C@H](O)[C@H]4O[C@@H]4O[C@H](CO)[C@@H](O)[C@H](O)[C@H]4O)cc(O)c3c(=O)c2OC)cc1O					inactive
COc1ccc(-c2oc3cc(O[C@@H]4O[C@H](CO[C@@H]5O[C@@H](C)[C@H](O)[C@@H](O)[C@H]5O)[C@@H](O)[C@H](O)[C@H]4O)cc(O)c3c(=O)c2OC)cc1O					inactive
